Measurements from ChEMBL document CHEMBL3822358 (J Med Chem, 2016).

Target: Insulin-like growth factor 1 receptor (Homo sapiens, UniProt P08069)
Experiment: not given
Settings: not given

Sequence of Insulin-like growth factor 1 receptor (P08069 31-736 limits assumed): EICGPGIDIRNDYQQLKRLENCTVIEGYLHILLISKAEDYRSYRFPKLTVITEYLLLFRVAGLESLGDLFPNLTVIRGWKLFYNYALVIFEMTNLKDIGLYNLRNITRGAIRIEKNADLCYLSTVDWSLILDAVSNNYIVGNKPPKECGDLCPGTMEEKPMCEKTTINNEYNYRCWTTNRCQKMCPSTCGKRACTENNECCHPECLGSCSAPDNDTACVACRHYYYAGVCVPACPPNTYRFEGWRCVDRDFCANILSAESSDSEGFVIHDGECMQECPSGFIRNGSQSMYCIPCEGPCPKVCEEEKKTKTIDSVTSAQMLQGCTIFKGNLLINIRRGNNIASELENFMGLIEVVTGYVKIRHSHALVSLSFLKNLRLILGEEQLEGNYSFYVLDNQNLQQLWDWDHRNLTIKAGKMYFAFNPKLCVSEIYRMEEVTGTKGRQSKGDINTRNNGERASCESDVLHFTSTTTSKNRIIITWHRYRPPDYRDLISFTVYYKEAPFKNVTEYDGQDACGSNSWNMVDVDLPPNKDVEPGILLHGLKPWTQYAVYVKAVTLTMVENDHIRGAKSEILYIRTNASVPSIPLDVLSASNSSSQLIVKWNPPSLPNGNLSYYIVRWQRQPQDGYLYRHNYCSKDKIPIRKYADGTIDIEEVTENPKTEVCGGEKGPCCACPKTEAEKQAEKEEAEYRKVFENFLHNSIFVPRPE
Sequence of Insulin-like growth factor 1 receptor (P08069 741-1367 limits assumed): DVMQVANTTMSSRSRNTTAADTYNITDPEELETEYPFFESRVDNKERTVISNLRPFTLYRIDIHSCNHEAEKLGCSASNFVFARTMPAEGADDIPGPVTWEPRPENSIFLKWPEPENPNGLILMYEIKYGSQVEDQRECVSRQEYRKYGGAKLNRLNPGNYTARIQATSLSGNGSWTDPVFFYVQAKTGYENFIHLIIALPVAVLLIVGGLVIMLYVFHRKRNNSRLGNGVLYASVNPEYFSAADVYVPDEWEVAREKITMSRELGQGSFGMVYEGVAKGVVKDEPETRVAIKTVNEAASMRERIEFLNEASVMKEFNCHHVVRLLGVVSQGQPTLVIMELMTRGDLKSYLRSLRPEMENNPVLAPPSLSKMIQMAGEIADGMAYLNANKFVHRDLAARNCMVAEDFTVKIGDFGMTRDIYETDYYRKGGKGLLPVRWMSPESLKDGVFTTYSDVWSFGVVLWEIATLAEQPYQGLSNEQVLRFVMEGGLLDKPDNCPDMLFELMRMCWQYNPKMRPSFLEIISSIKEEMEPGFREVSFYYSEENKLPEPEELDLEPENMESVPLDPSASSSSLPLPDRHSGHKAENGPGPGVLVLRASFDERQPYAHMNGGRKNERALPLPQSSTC

SMILES	IC50
COc1cc(P(C)(C)=O)ccc1Nc1ncc(Cl)c(Nc2ccccc2OC)n1	22.1 nM
COc1cc(N2CCC(N3CCCCC3)C2)ccc1Nc1ncc(Cl)c(Nc2ccccc2P(C)(C)=O)n1 (centres undefined)	81.5 nM
COc1cc(N2CCC(N3CCN(C)CC3)CC2)ccc1Nc1ncc(Cl)c(Nc2ccccc2S(C)(=O)=O)n1	0.76 nM
COc1cc(N2CC[C@@H](N(C)C)C2)ccc1Nc1ncc(Cl)c(Nc2ccccc2P(C)(C)=O)n1	42.7 nM
COc1cc(P(C)(C)=O)ccc1Nc1ncc(Cl)c(Nc2ccccc2C(N)=O)n1	0.11 nM
COc1cc(N2CCC(N3CCN(C)CC3)CC2)ccc1Nc1ncc(Cl)c(Nc2ccccc2)n1	51.6 nM
COc1cc(N2CCN(C3CCN(C)CC3)CC2)ccc1Nc1ncc(Cl)c(Nc2ccccc2P(C)(C)=O)n1	43.3 nM
COc1cc(N2CCC(N3CCN(C)CC3)CC2)ccc1Nc1ncc(C2CC2)c(Nc2ccccc2P(C)(C)=O)n1	434 nM
COc1cc(N2CCN(CCO)CC2)ccc1Nc1ncc(Cl)c(Nc2ccccc2P(C)(C)=O)n1	12.8 nM

Target: Insulin receptor (Homo sapiens, UniProt P06213)
Experiment: not given
Settings: not given

Sequence of Insulin receptor (P06213 28-758 limits assumed): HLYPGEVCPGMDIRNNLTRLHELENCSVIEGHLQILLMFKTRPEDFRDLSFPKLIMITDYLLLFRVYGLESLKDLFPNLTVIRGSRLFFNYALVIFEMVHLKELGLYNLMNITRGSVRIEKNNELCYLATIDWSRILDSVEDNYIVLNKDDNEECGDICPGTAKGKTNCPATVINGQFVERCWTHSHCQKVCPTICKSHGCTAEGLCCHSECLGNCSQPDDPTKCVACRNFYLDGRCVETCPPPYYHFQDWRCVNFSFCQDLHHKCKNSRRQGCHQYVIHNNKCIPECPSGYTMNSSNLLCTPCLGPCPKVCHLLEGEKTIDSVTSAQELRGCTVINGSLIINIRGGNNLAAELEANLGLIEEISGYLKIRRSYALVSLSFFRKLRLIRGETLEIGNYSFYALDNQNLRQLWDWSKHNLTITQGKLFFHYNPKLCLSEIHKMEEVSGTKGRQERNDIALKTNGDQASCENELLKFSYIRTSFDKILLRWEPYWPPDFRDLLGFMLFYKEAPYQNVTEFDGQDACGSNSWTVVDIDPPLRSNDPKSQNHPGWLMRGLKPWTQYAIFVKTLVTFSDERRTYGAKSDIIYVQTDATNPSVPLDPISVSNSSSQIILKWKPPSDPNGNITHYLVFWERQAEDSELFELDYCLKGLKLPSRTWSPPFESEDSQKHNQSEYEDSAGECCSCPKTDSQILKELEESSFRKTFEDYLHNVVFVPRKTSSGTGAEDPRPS
Sequence of Insulin receptor (P06213 763-1382 limits assumed): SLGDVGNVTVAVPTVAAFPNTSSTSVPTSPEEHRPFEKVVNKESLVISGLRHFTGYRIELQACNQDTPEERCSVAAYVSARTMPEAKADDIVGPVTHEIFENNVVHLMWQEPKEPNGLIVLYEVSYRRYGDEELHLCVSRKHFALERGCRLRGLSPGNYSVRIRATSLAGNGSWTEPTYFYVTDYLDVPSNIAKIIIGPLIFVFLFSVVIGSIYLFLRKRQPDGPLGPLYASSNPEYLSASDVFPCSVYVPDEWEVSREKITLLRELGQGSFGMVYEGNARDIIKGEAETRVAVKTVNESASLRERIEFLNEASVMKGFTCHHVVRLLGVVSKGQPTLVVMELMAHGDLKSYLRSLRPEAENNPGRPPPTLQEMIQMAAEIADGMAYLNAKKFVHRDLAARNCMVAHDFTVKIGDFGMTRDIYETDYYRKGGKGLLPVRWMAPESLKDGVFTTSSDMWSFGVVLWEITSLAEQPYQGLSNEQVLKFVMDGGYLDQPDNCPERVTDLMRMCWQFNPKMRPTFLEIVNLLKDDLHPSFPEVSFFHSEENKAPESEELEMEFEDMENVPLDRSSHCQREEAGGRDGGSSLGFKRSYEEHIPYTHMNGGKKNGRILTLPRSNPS

SMILES	IC50
COc1cc(P(C)(C)=O)ccc1Nc1ncc(Cl)c(Nc2ccccc2OC)n1	55.2 nM
COc1cc(N2CCC(N3CCCCC3)C2)ccc1Nc1ncc(Cl)c(Nc2ccccc2P(C)(C)=O)n1 (centres undefined)	270 nM
COc1cc(N2CCC(N3CCN(C)CC3)CC2)ccc1Nc1ncc(Cl)c(Nc2ccccc2S(C)(=O)=O)n1	5.1 nM
COc1cc(N2CC[C@@H](N(C)C)C2)ccc1Nc1ncc(Cl)c(Nc2ccccc2P(C)(C)=O)n1	489 nM
COc1cc(P(C)(C)=O)ccc1Nc1ncc(Cl)c(Nc2ccccc2C(N)=O)n1	14.1 nM
COc1cc(N2CCC(N3CCN(C)CC3)CC2)ccc1Nc1ncc(Cl)c(Nc2ccccc2)n1	81.7 nM
COc1cc(N2CCN(C3CCN(C)CC3)CC2)ccc1Nc1ncc(Cl)c(Nc2ccccc2P(C)(C)=O)n1	285 nM
COc1cc(N2CCC(N3CCN(C)CC3)CC2)ccc1Nc1ncc(C2CC2)c(Nc2ccccc2P(C)(C)=O)n1	367 nM
COc1cc(N2CCN(CCO)CC2)ccc1Nc1ncc(Cl)c(Nc2ccccc2P(C)(C)=O)n1	28.1 nM

Tested on: not listed separately
Experiment: AUC (0 to infinity) in CD rat at 3 mg/kg, iv by LC-MS/MS analysis
Format: ADME, organism-based
Set-up: dose 3 mg/kg, time infinity, route intravenous
Settings: CD, in vivo

SMILES	AUC(0-inf)
COc1cc(N2CCN(CCO)CC2)ccc1Nc1ncc(Cl)c(Nc2ccccc2P(C)(C)=O)n1	1330 ng·h/mL

Tested on: not listed separately
Experiment: Clearance in CD rat at 3 mg/kg, iv by LC-MS/MS analysis
Format: ADME, organism-based
Settings: in vivo

SMILES	clearance
COc1cc(N2CCN(CCO)CC2)ccc1Nc1ncc(Cl)c(Nc2ccccc2P(C)(C)=O)n1	35.8 mL/min/kg

Tested on: not listed separately
Experiment: Half life in CD rat at 3 mg/kg, iv by LC-MS/MS analysis
Format: ADME, organism-based
Settings: CD, in vivo

SMILES	half-life
COc1cc(N2CCN(CCO)CC2)ccc1Nc1ncc(Cl)c(Nc2ccccc2P(C)(C)=O)n1	8.4 h

Tested on: not listed separately
Experiment: Volume of distribution at steady state in CD rat at 3 mg/kg, iv by LC-MS/MS analysis
Format: ADME, organism-based
Settings: CD, in vivo, read-out: Vdss

SMILES	Vd
COc1cc(N2CCN(CCO)CC2)ccc1Nc1ncc(Cl)c(Nc2ccccc2P(C)(C)=O)n1	9.51 L/kg

Tested on: not listed separately
Experiment: Cmax in CD rat at 10 mg/kg, po by LC-MS/MS analysis
Format: ADME, organism-based
Set-up: dose 10 mg/kg, route oral
Settings: in vivo

SMILES	Cmax
COc1cc(N2CCN(CCO)CC2)ccc1Nc1ncc(Cl)c(Nc2ccccc2P(C)(C)=O)n1	75.7 ng/mL

Tested on: not listed separately
Experiment: AUC (0 to infinity) in CD rat at 10 mg/kg, po by LC-MS/MS analysis
Format: ADME, organism-based
Set-up: dose 10 mg/kg, route oral, time infinity
Settings: in vivo

SMILES	AUC(0-inf)
COc1cc(N2CCN(CCO)CC2)ccc1Nc1ncc(Cl)c(Nc2ccccc2P(C)(C)=O)n1	777 ng·h/mL

Tested on: not listed separately
Experiment: Tmax in CD rat at 10 mg/kg, po by LC-MS/MS analysis
Format: ADME, organism-based
Settings: in vivo

SMILES	Tmax
COc1cc(N2CCN(CCO)CC2)ccc1Nc1ncc(Cl)c(Nc2ccccc2P(C)(C)=O)n1	4 h

Tested on: not listed separately
Experiment: Half life in CD rat at 10 mg/kg, po by LC-MS/MS analysis
Format: ADME, organism-based
Settings: in vivo

SMILES	half-life
COc1cc(N2CCN(CCO)CC2)ccc1Nc1ncc(Cl)c(Nc2ccccc2P(C)(C)=O)n1	2.9 h

Tested on: not listed separately
Experiment: Oral bioavailability in CD rat at 10 mg/kg by LC-MS/MS analysis
Format: ADME, organism-based
Settings: in vivo

SMILES	bioavailability
COc1cc(N2CCN(CCO)CC2)ccc1Nc1ncc(Cl)c(Nc2ccccc2P(C)(C)=O)n1	18%

Target: ALK tyrosine kinase receptor (Homo sapiens, UniProt Q9UM73)
Experiment: not given
Settings: not given

Sequence of ALK tyrosine kinase receptor (Q9UM73 whole entry): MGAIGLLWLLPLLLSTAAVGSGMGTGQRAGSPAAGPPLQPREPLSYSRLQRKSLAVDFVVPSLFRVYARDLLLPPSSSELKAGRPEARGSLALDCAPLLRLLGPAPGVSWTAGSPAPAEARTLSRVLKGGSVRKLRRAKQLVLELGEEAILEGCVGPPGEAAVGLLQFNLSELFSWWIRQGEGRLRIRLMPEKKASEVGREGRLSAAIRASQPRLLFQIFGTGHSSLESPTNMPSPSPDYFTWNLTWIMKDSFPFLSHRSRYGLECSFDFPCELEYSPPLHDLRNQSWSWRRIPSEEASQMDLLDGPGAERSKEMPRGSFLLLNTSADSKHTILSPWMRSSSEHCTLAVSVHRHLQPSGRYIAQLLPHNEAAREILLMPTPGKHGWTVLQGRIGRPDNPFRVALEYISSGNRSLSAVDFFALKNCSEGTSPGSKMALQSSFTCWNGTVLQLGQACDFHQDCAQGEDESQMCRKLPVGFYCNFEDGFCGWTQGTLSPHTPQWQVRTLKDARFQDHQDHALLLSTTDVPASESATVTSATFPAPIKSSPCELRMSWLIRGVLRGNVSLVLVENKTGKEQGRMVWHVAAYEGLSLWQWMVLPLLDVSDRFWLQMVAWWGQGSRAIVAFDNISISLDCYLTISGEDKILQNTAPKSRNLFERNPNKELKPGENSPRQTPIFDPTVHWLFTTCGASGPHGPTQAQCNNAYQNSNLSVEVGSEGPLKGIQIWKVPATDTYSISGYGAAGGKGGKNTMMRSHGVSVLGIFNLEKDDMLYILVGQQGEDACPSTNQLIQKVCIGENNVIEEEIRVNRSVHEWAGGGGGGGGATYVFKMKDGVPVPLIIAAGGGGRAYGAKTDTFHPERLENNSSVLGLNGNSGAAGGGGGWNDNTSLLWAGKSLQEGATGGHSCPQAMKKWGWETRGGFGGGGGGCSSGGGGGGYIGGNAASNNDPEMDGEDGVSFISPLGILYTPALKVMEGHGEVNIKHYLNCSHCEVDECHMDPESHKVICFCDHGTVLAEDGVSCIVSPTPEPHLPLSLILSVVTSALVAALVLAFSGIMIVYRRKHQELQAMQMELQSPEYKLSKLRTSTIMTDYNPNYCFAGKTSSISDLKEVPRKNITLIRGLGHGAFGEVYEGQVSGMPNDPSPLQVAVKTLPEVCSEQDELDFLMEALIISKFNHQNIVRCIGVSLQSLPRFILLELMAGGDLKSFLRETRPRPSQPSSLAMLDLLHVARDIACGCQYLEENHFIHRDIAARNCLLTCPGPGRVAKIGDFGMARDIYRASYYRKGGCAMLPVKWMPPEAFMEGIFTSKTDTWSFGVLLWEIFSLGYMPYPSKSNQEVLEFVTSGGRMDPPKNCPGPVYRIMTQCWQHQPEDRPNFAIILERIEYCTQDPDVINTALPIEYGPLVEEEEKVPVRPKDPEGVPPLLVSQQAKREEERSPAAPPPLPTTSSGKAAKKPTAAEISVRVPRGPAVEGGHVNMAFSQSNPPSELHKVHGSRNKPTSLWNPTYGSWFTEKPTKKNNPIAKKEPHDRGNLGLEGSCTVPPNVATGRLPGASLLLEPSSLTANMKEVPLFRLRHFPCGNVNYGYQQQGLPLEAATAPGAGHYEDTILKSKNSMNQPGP

SMILES	IC50
COc1cc(N2CCC(N3CCN(C)CC3)CC2)ccc1Nc1ncc(C(C)=O)c(Nc2ccccc2P(C)(C)=O)n1	291 nM
COc1cc(P(C)(C)=O)ccc1Nc1ncc(Cl)c(Nc2ccccc2OC)n1	0.96 nM
COc1cc(N2CCC(N3CCCCC3)C2)ccc1Nc1ncc(Cl)c(Nc2ccccc2P(C)(C)=O)n1 (centres undefined)	0.88 nM
COc1cc(N2CCC(N3CCN(C)CC3)CC2)ccc1Nc1ncc(Cl)c(Nc2ccccc2S(C)(=O)=O)n1	0.59 nM
COc1cc(N2CC[C@@H](N(C)C)C2)ccc1Nc1ncc(Cl)c(Nc2ccccc2P(C)(C)=O)n1	0.33 nM
COc1cc(P(C)(C)=O)ccc1Nc1ncc(Cl)c(Nc2ccccc2C(N)=O)n1	0.68 nM
COc1cc(N2CCC(N3CCN(C)CC3)CC2)ccc1Nc1ncc(Cl)c(Nc2ccccc2)n1	9.9 nM
COc1ccccc1Nc1ncc(Cl)c(Nc2ccccc2S(=O)(=O)C(C)C)n1	2.1 nM
COc1cc(N2CCN(C3CCN(C)CC3)CC2)ccc1Nc1ncc(Cl)c(Nc2ccccc2P(C)(C)=O)n1	0.28 nM
COc1cc(N2CCC(N3CCN(C)CC3)CC2)ccc1Nc1ncc(C2CC2)c(Nc2ccccc2P(C)(C)=O)n1	3.23 nM
COc1cc(N2CCN(CCO)CC2)ccc1Nc1ncc(Cl)c(Nc2ccccc2P(C)(C)=O)n1	0.18 nM

Tested on: not listed separately
Experiment: cells
Settings: Homo sapiens, KARPAS-299, 72 h
Description: Antiproliferative activity against human ALK-positive KARPAS299 cells assessed as reduction in cell viability measured after 72 hrs by CellTiter 96 aqueous one solution cell proliferation assay

SMILES	IC50
COc1cc(P(C)(C)=O)ccc1Nc1ncc(Cl)c(Nc2ccccc2OC)n1	278 nM
COc1cc(N2CCC(N3CCCCC3)C2)ccc1Nc1ncc(Cl)c(Nc2ccccc2P(C)(C)=O)n1 (centres undefined)	66.7 nM
COc1cc(N2CC[C@@H](N(C)C)C2)ccc1Nc1ncc(Cl)c(Nc2ccccc2P(C)(C)=O)n1	66.9 nM
COc1cc(P(C)(C)=O)ccc1Nc1ncc(Cl)c(Nc2ccccc2C(N)=O)n1	613 nM
COc1ccccc1Nc1ncc(Cl)c(Nc2ccccc2S(=O)(=O)C(C)C)n1	349 nM
COc1cc(N2CCN(C3CCN(C)CC3)CC2)ccc1Nc1ncc(Cl)c(Nc2ccccc2P(C)(C)=O)n1	101 nM
COc1cc(N2CCC(N3CCN(C)CC3)CC2)ccc1Nc1ncc(C2CC2)c(Nc2ccccc2P(C)(C)=O)n1	278 nM
COc1cc(N2CCN(CCO)CC2)ccc1Nc1ncc(Cl)c(Nc2ccccc2P(C)(C)=O)n1	37.6 nM

Tested on: not listed separately
Experiment: cells
Settings: Homo sapiens, U-937, 72 h
Description: Antiproliferative activity against human ALK-negative U937 cells assessed as reduction in cell viability measured after 72 hrs by CellTiter 96 aqueous one solution cell proliferation assay

SMILES	IC50
COc1cc(P(C)(C)=O)ccc1Nc1ncc(Cl)c(Nc2ccccc2OC)n1	2910 nM
COc1cc(N2CCC(N3CCCCC3)C2)ccc1Nc1ncc(Cl)c(Nc2ccccc2P(C)(C)=O)n1 (centres undefined)	2390 nM
COc1cc(N2CC[C@@H](N(C)C)C2)ccc1Nc1ncc(Cl)c(Nc2ccccc2P(C)(C)=O)n1	1170 nM
COc1cc(P(C)(C)=O)ccc1Nc1ncc(Cl)c(Nc2ccccc2C(N)=O)n1	2370 nM
COc1ccccc1Nc1ncc(Cl)c(Nc2ccccc2S(=O)(=O)C(C)C)n1	20800 nM
COc1cc(N2CCN(C3CCN(C)CC3)CC2)ccc1Nc1ncc(Cl)c(Nc2ccccc2P(C)(C)=O)n1	4920 nM
COc1cc(N2CCC(N3CCN(C)CC3)CC2)ccc1Nc1ncc(C2CC2)c(Nc2ccccc2P(C)(C)=O)n1	10600 nM
COc1cc(N2CCN(CCO)CC2)ccc1Nc1ncc(Cl)c(Nc2ccccc2P(C)(C)=O)n1	1800 nM
